Data on 14 compounds can be found in US12187723B2 (BRISTOL-MYERS SQUIBB COMPANY, priority 2019, dated 2025).

Broadly, the pIC50 is the negative decadic logarithm of the IC50, by convention in mol/L. Higher therefore signals a low IC50.

In experiment [1] the target is T1, human TLR9 (Homo sapiens, UniProt Q9NR96).
T1 construct: host or cells: HEK-Blue cells
T1 sequence (Q9NR96 26-1032): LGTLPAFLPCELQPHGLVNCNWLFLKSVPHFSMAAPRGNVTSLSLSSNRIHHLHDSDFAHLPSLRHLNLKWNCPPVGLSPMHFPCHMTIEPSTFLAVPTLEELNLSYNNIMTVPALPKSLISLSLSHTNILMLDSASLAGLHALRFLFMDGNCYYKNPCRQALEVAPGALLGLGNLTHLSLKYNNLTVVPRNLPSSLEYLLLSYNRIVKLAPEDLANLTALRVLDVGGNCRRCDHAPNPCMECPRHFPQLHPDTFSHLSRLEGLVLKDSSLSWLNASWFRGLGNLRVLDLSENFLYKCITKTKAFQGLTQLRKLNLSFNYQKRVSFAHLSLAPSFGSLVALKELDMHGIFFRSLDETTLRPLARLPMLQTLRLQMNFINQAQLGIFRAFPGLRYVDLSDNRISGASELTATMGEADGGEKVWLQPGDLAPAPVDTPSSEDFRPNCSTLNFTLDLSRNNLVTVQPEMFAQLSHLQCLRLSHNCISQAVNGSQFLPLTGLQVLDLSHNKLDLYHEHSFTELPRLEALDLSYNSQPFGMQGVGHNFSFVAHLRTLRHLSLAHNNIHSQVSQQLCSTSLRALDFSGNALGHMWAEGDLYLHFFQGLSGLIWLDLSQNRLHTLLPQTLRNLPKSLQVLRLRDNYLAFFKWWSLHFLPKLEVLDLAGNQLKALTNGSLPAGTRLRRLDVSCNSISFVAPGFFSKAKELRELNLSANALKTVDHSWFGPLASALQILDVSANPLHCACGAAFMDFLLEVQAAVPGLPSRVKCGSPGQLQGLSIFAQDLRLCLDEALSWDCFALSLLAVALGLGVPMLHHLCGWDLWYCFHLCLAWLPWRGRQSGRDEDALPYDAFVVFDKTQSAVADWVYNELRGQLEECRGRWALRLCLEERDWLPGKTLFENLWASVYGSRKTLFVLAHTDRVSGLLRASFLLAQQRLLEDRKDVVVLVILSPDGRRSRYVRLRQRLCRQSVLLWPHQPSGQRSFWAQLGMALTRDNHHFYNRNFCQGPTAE
Kind of experiment: TLR9 inhibition reporter assay (HEK-Blue SEAP). It is filed as cell-based. As to conditions: HEK-Blue cells overexpressing human TLR9, ODN2006 5 nM, 22 hour incubation. Here is the method:
(§1) TLR7/8/9 Inhibition Reporter Assays
HEK-Blue™-cells (Invivogen) overexpressing human TLR7, TLR8 or TLR9 receptors were used for screening inhibitors of these receptors using an inducible SEAP (secreted embryonic alkaline phosphatase) reporter gene under the control of the IFN-β minimal promoter fused to five NF-κB and AP-1-binding sites. Briefly, cells are seeded into Greiner 384 well plates (15000 cells per well for TLR7, 20,000 for TLR8 and 25,000 for TLR9) and then treated with test compounds in DMSO to yield a final dose response concentration range of 0.05 nM-50 μM. After a 30 minute compound pre-treatment at room temperature, the cells are then stimulated with a TLR7 ligand (gardiquimod at a final concentration of 7.5 μM), TLR8 ligand (R848 at a final concentration of 15.9 μM) or TLR9 ligand (ODN2006 at a final concentration of 5 nM) to activate NF-κB and AP-1 which induce the production of SEAP. After a 22 hour incubation at 37° C., 5% CO2, SEAP levels are determined with the addition of HEK-Blue™ Detection reagent (Invivogen), a cell culture medium that allows for detection of SEAP, according to manufacturer's specifications. The percent inhibition is determined as the % reduction in the HEK-Blue signal present in wells treated with agonist plus DMSO alone compared to wells treated with a known inhibitor.

In experiment [2] the target is T2, human TLR7 (Homo sapiens, UniProt Q9NYK1).
T2 construct: host or cells: HEK-Blue cells
T2 sequence (Q9NYK1 27-1049): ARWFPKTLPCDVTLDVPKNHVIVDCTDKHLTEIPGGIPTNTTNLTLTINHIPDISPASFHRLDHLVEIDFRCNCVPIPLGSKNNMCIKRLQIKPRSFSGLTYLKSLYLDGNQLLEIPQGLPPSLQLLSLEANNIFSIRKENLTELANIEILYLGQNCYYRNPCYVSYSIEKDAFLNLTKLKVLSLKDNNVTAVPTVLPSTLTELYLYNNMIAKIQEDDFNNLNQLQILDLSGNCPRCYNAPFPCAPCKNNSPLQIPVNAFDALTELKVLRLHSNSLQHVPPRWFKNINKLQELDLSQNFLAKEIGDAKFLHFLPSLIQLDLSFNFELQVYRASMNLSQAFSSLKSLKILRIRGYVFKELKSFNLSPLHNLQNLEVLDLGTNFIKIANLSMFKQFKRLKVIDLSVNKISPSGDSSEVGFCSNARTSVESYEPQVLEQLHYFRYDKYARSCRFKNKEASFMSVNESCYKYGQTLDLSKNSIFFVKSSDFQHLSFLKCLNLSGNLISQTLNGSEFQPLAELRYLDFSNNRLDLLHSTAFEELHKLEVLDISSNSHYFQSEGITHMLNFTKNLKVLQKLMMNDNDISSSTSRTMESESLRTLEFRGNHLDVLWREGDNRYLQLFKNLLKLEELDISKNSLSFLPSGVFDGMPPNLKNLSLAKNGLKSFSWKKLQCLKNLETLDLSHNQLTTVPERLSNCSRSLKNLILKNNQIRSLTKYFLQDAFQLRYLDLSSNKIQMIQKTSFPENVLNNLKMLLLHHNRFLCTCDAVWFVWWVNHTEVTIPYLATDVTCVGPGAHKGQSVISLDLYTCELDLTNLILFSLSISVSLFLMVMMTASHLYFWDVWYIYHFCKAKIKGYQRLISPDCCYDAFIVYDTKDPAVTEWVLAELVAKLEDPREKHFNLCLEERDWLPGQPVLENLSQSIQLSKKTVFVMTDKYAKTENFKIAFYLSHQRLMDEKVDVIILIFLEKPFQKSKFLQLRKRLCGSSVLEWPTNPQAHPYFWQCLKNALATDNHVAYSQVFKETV
Kind of experiment: TLR7 inhibition reporter assay (HEK-Blue SEAP). As to conditions: HEK-Blue cells overexpressing human TLR7, gardiquimod 7.5 μM, 22 hour incubation. It is filed as cell-based. Here is the method:
as §1
Briefly, cells are seeded into Greiner 384 well plates (15000 cells per well for TLR7, 20,000 for TLR8 and 25,000 for TLR9) and then treated with test compounds in DMSO to yield a final dose response concentration range of 0.05 nM-50 μM. […] After a 22 hour incubation at 37° C., 5% CO2, SEAP levels are determined with the addition of HEK-Blue™ Detection reagent (Invivogen), a cell culture medium that allows for detection of SEAP, according to manufacturer's specifications. The percent inhibition is determined as the % reduction in the HEK-Blue signal present in wells treated with agonist plus DMSO alone compared to wells treated with a known inhibitor.
For orientation: Reporter assays use an easily measured gene product as a stand-in for the process of interest.

Structures are written as SMILES. pIC50: −log10 of the molar value.

As for `COCCN1CCC[C@@H](n2c(=O)[nH]c3cc(-c4cc(OC)c5ncnn5c4)c(C(F)(F)F)cc32)C1` [Example 118, (R)-5-(8-methoxy-[1,2,4]triazolo[1,5-a]pyridin-6-yl)-1-(1-(2-methoxyethyl)piperidin-3-yl)-6-(trifluoromethyl)-1,3-dihydro-2H-benzo[d]imidazol-2-one], the pIC50 in experiment [1] is 4.74; in experiment [2], 7.58.
For `Cc1c(-c2cc3[nH]c(=O)n([C@@H]4CCCN(CC5CCOCC5)C4)c3cc2C(C)C)cn2ncnc2c1C` [Example 149, (R)-5-(7,8-dimethyl-[1,2,4]triazolo[1,5-a]pyridin-6-yl)-6-isopropyl-1-(1-((tetrahydro-2H-pyran-4-yl)methyl)piperidin-3-yl)-1,3-dihydro-2H-benzo[d]imidazol-2-one], the pIC50 in experiment [1] is 4.80; in experiment [2], 8.40.
For the compound `COc1cc(-c2cc3[nH]c(=O)n([C@@H]4CCCN(CC(C)(C)C)C4)c3cc2C(F)(F)F)cn2ncnc12` [Example 116, (R)-5-(8-methoxy-[1,2,4]triazolo[1,5-a]pyridin-6-yl)-1-(1-neopentylpiperidin-3-yl)-6-(trifluoromethyl)-1,3-dihydro-2H-benzo[d]imidazol-2-one], the figures for the pIC50 in experiment [1] and in experiment [2] were 4.47 and 7.36, respectively.
On the same counts, the results for `COc1cc(-c2cc3[nH]c(=O)n([C@H]4CCCN(CC5CCOC5)C4)c3cc2C(C)C)cn2ncnc12` (stereo partly drawn) [Example 126, 6-isopropyl-5-(8-methoxy-[1,2,4]triazolo[1,5-a]pyridin-6-yl)-1-((3S)-1-((tetrahydrofuran-3-yl)methyl)piperidin-3-yl)-1,3-dihydro-2H-benzo[d]imidazol-2-one] are 4.56 and 7.09.
Consider `Cc1c(-c2cc3[nH]c(=O)n([C@@H]4CCCN(C5COC5)C4)c3cc2C(C)C)cn2ncnc2c1C` [Example 146, (R)-5-(7,8-dimethyl-[1,2,4]triazolo[1,5-a]pyridin-6-yl)-6-isopropyl-1-(1-(oxetan-3-yl)piperidin-3-yl)-1,3-dihydro-2H-benzo[d]imidazol-2-one], for which the pIC50 is below 4.30 in experiment [1] and 6.74 in experiment [2].
On the same counts, the results for `Cc1cc(-c2ccc3c(c2)[nH]c(=O)n3C2CCN(C(C)C)CC2)cn2ncnc12` [Example 5, 1-(1-isopropylpiperidin-4-yl)-5-(8-methyl-[1,2,4]triazolo[1,5-a]pyridin-6-yl)-1,3-dihydro-2H-benzo[d]imidazol-2-one] are 5.56 and 5.81.
In the case of `COCCN1CCC[C@@H](n2c(=O)[nH]c3cc(-c4cc(OC)c5ncnn5c4)c(C)cc32)C1` [Example 98, (R)-5-(8-methoxy-[1,2,4]triazolo[1,5-a]pyridin-6-yl)-1-(1-(2-methoxyethyl)piperidin-3-yl)-6-methyl-1,3-dihydro-2H-benzo[d]imidazol-2-one], the negative-log IC50 (pIC50) in experiment [1] was 5.23; in experiment [2] it was 7.69.
`COc1cc(-c2cc3[nH]c(=O)n([C@H]4CCCN(CC(C)C)C4)c3cc2C(C)C)cn2ncnc12` [Example 129, (S)-1-(1-isobutylpiperidin-3-yl)-6-isopropyl-5-(8-methoxy-[1,2,4]triazolo[1,5-a]pyridin-6-yl)-1,3-dihydro-2H-benzo[d]imidazol-2-one]: the pIC50 in experiment [1] was 5.43; in experiment [2], 7.89.
For `COc1cc(-c2cc3[nH]c(=O)n([C@@H]4CCCN(CC5CCOCC5)C4)c3cc2C(F)(F)F)cn2ncnc12` [Example 112, (R)-5-(8-methoxy-[1,2,4]triazolo[1,5-a]pyridin-6-yl)-1-(1-((tetrahydro-2H-pyran-4-yl)methyl)piperidin-3-yl)-6-(trifluoromethyl)-1,3-dihydro-2H-benzo[d]imidazol-2-one], in that order: 4.90 and 7.51.
For the compound `Cc1cc2c(cc1-c1cc(C)c3ncnn3c1)[nH]c(=O)n2[C@@H]1CCCN(CC#N)C1` [Example 96, (R)-2-(3-(6-methyl-5-(8-methyl-[1,2,4]triazolo[1,5-a]pyridin-6-yl)-2-oxo-2,3-dihydro-1H-benzo[d]imidazol-1-yl)piperidin-1-yl)acetonitrile], the pIC50 is 5.06 in experiment [1] and 7.18 in experiment [2].
On the same counts, the results for `COc1cc(-c2cc3[nH]c(=O)n(C4CCN(C5CCC5)CC4)c3cc2C(C)C)cn2ncnc12` [Example 156, 1-(1-cyclobutylpiperidin-4-yl)-6-isopropyl-5-(8-methoxy-[1,2,4]triazolo[1,5-a]pyridin-6-yl)-1,3-dihydro-2H-benzo[d]imidazol-2-one] are 4.62 and 7.75.
With `CCC(CC)CN1CCC[C@H](n2c(=O)[nH]c3cc(-c4cc(OC)c5ncnn5c4)c(C(C)C)cc32)C1` [Example 130, (S)-1-(1-(2-ethylbutyl)piperidin-3-yl)-6-isopropyl-5-(8-methoxy-[1,2,4]triazolo[1,5-a]pyridin-6-yl)-1,3-dihydro-2H-benzo[d]imidazol-2-one], the pIC50 was 5.02 in experiment [1] and 7.51 in experiment [2].
On the same counts, the results for `Cc1cc(-c2cc(C)c3ncnn3c2)cc2[nH]c(=O)n(C3CCN(C(C)C)CC3)c12` [Example 107, 1-(1-isopropylpiperidin-4-yl)-7-methyl-5-(8-methyl-[1,2,4]triazolo[1,5-a]pyridin-6-yl)-1,3-dihydro-2H-benzo[d]imidazol-2-one] are 5.52 and 7.48.
In the case of `Cc1cc(-c2cc(C)c3ncnn3c2)cc2[nH]c(=O)n(C3CCN(CC(=O)N(C)C)CC3)c12` [Example 109, N,N-dimethyl-2-(4-(7-methyl-5-(8-methyl-[1,2,4]triazolo[1,5-a]pyridin-6-yl)-2-oxo-2,3-dihydro-1H-benzo[d]imidazol-1-yl)piperidin-1-yl)acetamide], the pIC50 in experiment [1] was 4.84; in experiment [2], 7.13.
